# Reference: US8748464B2, “Use of SIRT1 activators or inhibitors to modulate an immune response” (The J. David Gladstone Institutes, priority 2008, dated 2014)
# How the values were obtained:
# [1] = tested on: natural thymus-derived Treg cells; test: Ex vivo expansion of natural Tregs from GFP-Foxp3 knock-in mice, flow cytometry of GFP and western blot; type: cell-based, mouse
# Procedure: To test the effect of Ex-527 in natural thymus-derived Treg cells, GFP+ cells were isolated from GFP-Foxp3 knock-in mice, in which green fluorescent protein (GFP) is expressed as a fusion protein with FoxP3. Total CD4+ T cells were isolated from spleen and lymph nodes of these mice, and GFP+ T cells were sorted with >95% purity. GFP+ T cells were expanded by anti-CD3/CD28 beads and IL-2 for 5 days when Ex-527 or dimethylsulfoxide (DMSO) was added. Two days later, 75% of cells were GFP-positive regardless whether Ex-527 was added or not; however, the MFI of GFP was increased in Ex-527-treated cells (FIG. 12B, day 7). 7 days later, only 5% of cells remained GFP-positive in control-treated cells versus 45% in Ex-527-treated cultures (FIG. 12B, day 12). In addition, the […] of FoxP3 remained higher in Ex-527-treated cells versus control-treated cells (387 versus 263). […] No FoxP3 expression was detected from either GFP-negative cells or cells expanded in the absence of Ex-527 (FIG. 12B). […] Thus, SIRT1 inhibitors, e.g., Ex-527, can be used to maximize ex vivo or in vivo expansion of Tregs for therapeutic purposes.
# FIGS. 12A and 12B. Inhibition of SIRT1 activity by Ex-527 promotes differentiation of iTreg cells and FoxP3 expression in nTreg cells. (A) Intracellular flow cytometry (% FoxP3+ cells and MFI) of FoxP3 in induced Tregs treated during differentiation with Ex-527 (50 μM) or DMSO as control. Shown are averages of three independent experiments (mean±SD). (B) Flow cytometry of GFP in natural Treg populations isolated from GFP-FoxP3 knock-in mice, in which GFP is expressed as a fusion protein with FoxP3. GFP+ nTregs were expanded by α-CD3/CD28 beads and hIL-2 (2000 U/ml) for 5 days. Cells were further cultured with either DMSO or Ex-527 for additional 2 and 7 days and FoxP3 expression was analyzed as in (A). Western blot analysis of FoxP3 in cell lysates from GFP−, GFP+, and GFP+ cultures expanded as described in the presence of DMSO or EX-527.
# [2] = tested on: FLAG-FoxP3 in 293 T cells; test: Western blot of FLAG-FoxP3 (wild type or mutant) or FLAG-AML1/Runx1 expression in 293 T cells; type: cell-based; conditions: for expression of FLAG-AML1/Runx1 / FoxP3 protein expression: Ex-527 50 μM or TSA 400 nM, 16 hours; for FoxP3 protein expression: nicotinamide 5 mM
# Procedure: To determine whether the three newly identified acetylated lysine residues regulate FoxP3 stability, mutants were generated in which each of three lysine residues was substituted to arginines (KR), a conservative mutation that preserves the positive charge of the residue.
# To investigate the effect of SIRT1 inhibition and the three newly identified acetylation sites on FoxP3 protein stability, wild type and 3KR mutant FoxP3 protein expression was measured after treatment with cycloheximide (CHX), a general inhibitor of protein translation.
# (B) Scheme of acetylated lysine residues identified by mass spectrometry using immunoprecipitated FLAG-FoxP3 protein. The murine protein is shown.
# [3] = tested on: naïve CD4+ T cells undergoing differentiation into iTreg cells; test: Intracellular flow cytometry of FoxP3 in naïve CD4+ T cells differentiating into iTreg cells; type: cell-based, mouse
# Procedure: To gain insight into the role of SIRT1 in Treg biology, SIRT1 protein expression during ex vivo Treg differentiation was analyzed. Naïve CD4^+ T cells (CD4+CD25-CD69-CD44-) were isolated from mouse spleen and lymph nodes and were activated by anti-CD3/CD28 antibodies alone or in combination with cytokines driving differentiation into T helper (Th) 1, Th2 or induced Treg (iTreg) cells. While SIRT1 expression was increased upon CD3/CD28 activation, it was decreased after T cell differentiation, most noticeably in iTregs (FIG. 9A, lane 5).
# To test whether SIRT1 plays a role in iTreg differentiation, SIRT1 was overexpressed during iTreg differentiation. Activated CD4+ cells were infected with bicistronic retroviral vectors expressing SIRT1 and the Thy1.1 surface marker (MSCV-SIRT1-Thy1.1) or a control vector expressing Thy1.1 alone (MSCV-Thy1.1). Cell were further differentiated into Tregs in the presence of recombinant human TGF-β and recombinant human IL-2 as previously described (Fu et al., 2004). After 3 days, cells were stained for surface Thy1.1 and intracellular FoxP3 and analyzed by flow cytometry. […] Cells were cultured 3 more days in IL-2 alone and were reanalyzed at day 6 after infection. Both, the number of FoxP3^+/Thy1.1^+ cells and FoxP3 MFI were decreased in SIRT1-expressing cells (FIG. 9B). The opposite result was observed when SIRT1 was knocked down during iTreg differentiation using lentiviral shRNA vectors.
# To test the effect of Ex-527 on FoxP3 expression in […] FoxP3-expressing cells, Ex-527 was added to naïve CD4+ T cells undergoing differentiation into iTreg cells. The number of FoxP3-expressing cells increased up to 3-fold in the presence of Ex-527 as compared to cells treated with the drug vehicle alone (FIG. 12A). […]
# FIGS. 12A and 12B. […] (B) Flow cytometry of GFP in natural Treg populations isolated from GFP-FoxP3 knock-in mice, in which GFP is expressed as a fusion protein with FoxP3. […] Cells were further cultured with either DMSO or Ex-527 for additional 2 and 7 days and FoxP3 expression was analyzed as in (A). […]
# Jurkat T cells = test: IL-2 protein ELISA in supernatant of α-CD3-stimulated Jurkat T cells infected with EF-1α-GFP or EF-1α-Tat-GFP viruses; type: cell-based, human; conditions: 16 hrs
# Procedure: Lentiviral vectors, which contained the heterologous elongation factor 1α (EF-1α) promoter driving Tat and GFP expression, were generated. High titer viral stocks were produced and used to infect Jurkat T cells. […] Infected cultures were stimulated with antibodies specific for the CD3 receptor and treated with increased concentrations of resveratrol (0.4 μM, 2 μM, and 10 μM), a known SIRT1 activator for 16 hrs. IL-2 protein was measured in the culture supernatant by ELISA assay. Following stimulation with α-CD3 antibody, IL-2 protein was superinduced ˜4-fold by wild type Tat (FIG. 8A). In cells expressing Tat, ˜2300 pg/ml of IL-2 protein was detected in response to α-CD3 treatment, whereas in control cells, only ˜600 pg/ml of IL-2 protein was induced.
# The effects of small molecule of SIRT1 ([…]) on T cell hyperactivation in Tat-expressing cells were examined. Jurkat T cells were infected with EF-1α-GFP or EF-1α-Tat-GFP viruses (FIG. 8B). Infected cultures were stimulated with α-CD3 antibody and treated with SRT2183 (0.2, 1, and 5 μM) for 16 hrs.
# FIGS. 8A and 8B. Resveratrol and small molecule activator of SIRT1 (SRT2183) suppresses T cell hyperactivation by Tat. (A) IL-2 protein levels measured by ELISA in the supernatant of infected cultures. 24 hrs after infection with EF1α-GFP and EF1α-Tat-GFP viruses, Jurkat T cells were stimulated with α-CD3 antibody in the presence of increased concentrations of resveratrol (0.4, 2, and 10 μM) for 16 hrs. (B) 24 hrs after infection with EF1α-GFP and EF1α-Tat-GFP viruses, Jurkat T cells were stimulated with α-CD3 antibody in the presence of increased concentrations of SRT2183 (0.2, 1, and 5 μM) for 16 hrs. IL-2 protein levels were measured by ELISA in the supernatant of infected cultures.
# [4] = tested on: FLAG-FoxP3 in 293 T cells; test: Immunoprecipitation/western blot of acetylated FLAG-FoxP3 or HA-AML1/Runx1 in 293 T cells cotransfected with p300; type: cell-based
# Excerpt: FIGS. 10A-D. SIRT1 interacts with FoxP3 and inhibition of SIRT1 deacetylase activity increases acetylation of FoxP3. (A) Communoprecipitation/western blot analysis of FLAG-tagged FoxP3 and HA-tagged SIRT1 after transfection of corresponding expression vectors or empty vector controls into 293T cells. (B) Communoprecipitation assay of SIRT1 and FoxP3 deletion mutants. A schematic summary of the binding of FoxP3 mutants to SIRT1 is shown. The forkhead box (FH) indicates the DNA binding domain ZnF, zinc finger domain; LZ, leucine zipper. […] An expression vector for the p300 acetyltransferase was cotransfected with FoxP3. (D) The same experiment as in (C) using HA-AML1/Runx1. Immunoprecipitations were performed with either anti-FLAG antibody coupled to agarose (α-FLAG agarose) (C) or anti-hemagglutinin antibody coupled to agarose (α-HA agarose) (D) and western blotting with rabbit polyclonal antibody to acetyl-lysine (α-acetyl lysine) (α-AcK), α-FLAG or α-HA antibodies.
# [5] = day 7 (two days after addition)
# [6] = 50 μM during iTreg differentiation
smiles,measurement,setting,value
"NC(=O)C1CCCc2c1[nH]c1ccc(Cl)cc21 (centres unmarked) [Ex-527, 6-chloro-2,3,4,9-tetrahydro-1H-carbazole-1-carboxamide]",GFP-positive cells,[1]; [5],75%
same,MFI of GFP,[1]; [5],increased
same,FoxP3 expression by western blot analysis,[1]; day 12,remained visible
same,MFI of FoxP3,[1]; day 12,387
same,GFP-positive cells,[1]; day 12 (7 days after addition),45%
same,FoxP3 mRNA levels,[2]; 293 T cells,No effect
same,expression of K31R mutant FLAG-FoxP3,"[2]; 293 T cells, 50 μM",increased expression of the K31R mutant to comparable levels as the wild type FoxP3 protein
same,expression of K262/267R double mutant FLAG-FoxP3,"[2]; 293 T cells, 50 μM",could not further increase
same,increase of expression of K262R and K267R mutant FLAG-FoxP3,"[2]; 293 T cells, 50 μM",less visible
same,expression of FLAG-AML1/Runx1,[2]; 293 T cells,unchanged
same,FoxP3 protein expression,[2]; 293 T cells,increased FoxP3 protein expression to a similar extent as nicotinamide
same,wild type FoxP3 protein expression after cycloheximide,[2]; 4 h of CHX treatment,stabilized FoxP3 protein expression
same,3KR mutant FoxP3 protein expression after cycloheximide,[2]; 4 hour-time point of CHX treatment,no further stabilization
same,increase of mean fluorescent intensity (MFI) of FoxP3 expression,[3]; [6],up to 2 fold
same,increase of number of FoxP3-expressing cells vs drug vehicle,[3]; [6],up to 3 fold
same,FoxP3 mRNA levels in iTreg cells,[3]; during iTreg differentiation,no effect
O=C(Nc1ccccc1-c1cn2c(CN3CC[C@@H](O)C3)csc2n1)c1ccc2ccccc2c1 [SRT2183],IL-2 protein in Tat expressing cells,Jurkat T cells; 5 μM,suppressed the production of IL-2 protein
same,IL-2 protein in control cells,Jurkat T cells; 5 μM,slight increase in IL-2 protein
same,IL-2 protein in control and Tat expressing cells,Jurkat T cells; 0.2 and 1 μM,caused increases in IL-2 protein
CC(/C=C/C(=O)NO)=C\[C@@H](C)C(=O)c1ccc(N(C)C)cc1 [trichostatin A],expression of FLAG-AML1/Runx1,[2]; 293 T cells,increased both FoxP3 and AML1/Runx1 expression
same,FoxP3 protein expression,[2]; 293 T cells,increased both FoxP3 and AML1/Runx1 expression
same,acetylation levels of FoxP3,[4],hyperacetylation
same,acetylation of AML1/Runx1,[4],increased to the same extent
